Values of other authors as cited in patent US20190314394A1, “IMMUNE-POTENTIATING DRUG NANOCARRIERS AND METHODS OF PRODUCTION AND USE THEREOF” (priority 2013, published 2019).

System: HLA-DR molecules
Settings: 15 out of 16 of the most prevalent HLA-DR molecules; read-out: IC50 (high or intermediate affinity binding)

aKXVAAWTLKAAa (SEQ ID NO: 5) (AKAVAAWTLKAAA; D-alanine termini, cyclohexylalanine; MOD_RES (1)..(1) D-Alanine; MOD_RES (3)..(3) Cyclohexylalanine; MOD_RES (13)..(13) D-Alanine) [PADRE peptide variant; a=D-alanine, X=cyclohexylalanine]
IC50: < 1000 nM
